# Measurements taken from paper PMC12613110, “Anti-Trypanosoma cruzi Effects of Sesquiterpenoids from Branches of Drimys brasiliensis (Winteraceae)” (ACS Omega, 2025).
# What was measured:
# [1] = Mammalian cytotoxicity, MTT assay (48 h); assay type: cell-based; conditions: mouse
# Description: (§1) The trypomastigote forms of T. cruzi (Y strain) were maintained in culture using Rhesus monkey kidney cells (LLC-MK2, ATCC CCL-7). These cells were cultured in RPMI-1640 medium supplemented with 2% fetal bovine serum (FBS) and incubated at 37 °C in a humidified atmosphere containing 5% CO2. Mouse fibroblast cells (NCTC clone L929, ATCC) and LLC-MK2 cells were similarly maintained in RPMI-1640 medium supplemented with 10% FBS under identical incubation conditions (37 °C, 5% CO2). Peritoneal macrophages were isolated from BALB/c mice by peritoneal lavage using RPMI-1640 medium supplemented with 10% FBS, followed by incubation at 37 °C in a 5% CO2 humidified atmosphere. In addition, the human monocytic cell line THP-1 (ATCC TIB-202) was cultured in RPMI-1640 medium supplemented with 20% FBS and […] glutamine, and maintained at 37 °C in a humidified 5% CO2 environment.
# The cytotoxicity of compounds 1–6 was assessed using NCTC (clone L929) cell line. NCTC cells (6 × 10^4 cells/well) were seeded into 96-well plates and treated with serial dilutions of the test compounds prepared in RPMI-1640 medium supplemented with 10% fetal bovine serum (FBS). Following a 48-h incubation at 37 °C in a humidified atmosphere with 5% CO2, cell viability was determined using the MTT colorimetric assay. The 50% cytotoxic concentration (CC50) was calculated based on absorbance measurements at 570 nm using a FilterMax F5 microplate reader (Molecular Devices).
# (§2) The CC50 and EC50 values were obtained from sigmoid dose–response curves using Graph-Pad Prims 6.0 software. All samples were tested in triplicate.
# [2] = test system: intracellular amastigote forms of T. cruzi; test: Activity against intracellular amastigote forms of T. cruzi in infected peritoneal macrophages (48 h); assay type: cell-based; conditions: Trypanosoma cruzi, Peritoneal macrophage, intracellular amastigotes in peritoneal macrophages, ± SD, NA: nonactive
# Description: as §1
# The antiparasitic activity of compounds 1–6 against the intracellular amastigote forms of T. cruzi was assessed using an in vitro infection model with peritoneal macrophages. Macrophages were seeded in 16-well plates at a density of 1 × 10^5 cells per well and incubated at 37 °C in a humidified atmosphere containing 5% CO2 for 24 h to promote adherence. Cells were then infected with trypomastigotes for 2 h under the same conditions to allow parasite internalization. Following infection, noninternalized parasites were removed by washing with RPMI-1640 medium. The infected macrophages were subsequently treated with serial dilutions of compounds 1–6 (150.0–1.6 μM) and incubated for an additional 48 h at 37 °C in 5% CO2 to evaluate their antitrypanosomal efficacy. ,
# as §2
# [3] = test system: T. cruzi trypomastigotes (Y strain); test: Anti-T. cruzi activity against trypomastigote forms (resazurin reduction assay, 24 h); assay type: cell-based; conditions: Trypanosoma cruzi, ± SD
# Description: as §1
# Compounds 1–6 were initially dissolved in DMSO and subsequently diluted in RPMI-1640 medium to the desired concentrations before being dispensed into 96-well microplates. T. cruzi trypomastigotes were then added at a density of 1 × 10^6 parasites per well. The plates were incubated for 24 h at 37 °C in a humidified atmosphere containing 5% CO2. Following incubation, the 50% effective concentration (EC50) was determined using the resazurin reduction assay. Absorbance readings were acquired at 570 nm using a microplate spectrophotometer (FilterMax F5). Untreated parasites served as the negative control, while benznidazole, a standard reference drug, was used as the positive control.
# as §2
# Leishmania infantum = test system: Leishmania infantum; parameters: method as in previous study by our group; conditions: after a short incubation period; ref previous study by our group; cited from earlier work
# [4] = NCTC clone L929 fibroblast cells
SMILES,"CC50 at 48 h [1, 4] [µM]",EC50 [2] [µM],EC50 [3] [µM],ultrastructural damage to Leishmania (Leishmania infantum),CC50 at 48 h ([1]; NCTC clone L929 cells) [µM]
"CC1(C)CCC[C@]2(C)[C@@H](C=O)C(C=O)=CC[C@@H]12 [Compound 5, polygodial]",> 200,3.5 ± 0.2,3.8 ± 3.1,intense mitochondrial swelling,
"O=C(Cn1ccnc1[N+](=O)[O-])NCc1ccccc1 [benznidazole, reference compound]",> 200,5.5 ± 2.2,17.4 ± 1.8,,
"CC(C)=CCC[C@@H](C)[C@]12C=C[C@](C)(CC1)OO2 (relative stereo) [Compound 3, rel-(3S,6R,7R)-3,6-epidioxy-1,10-bisaboladiene]",> 200,,65.5 ± 5.4,,
"CC(C)=CCC[C@@H](C)c1ccc(C)cc1 [Compound 4, α-curcumene]",> 200,4.9 ± 0.1,20.5 ± 1.6,,
"CC(C)=CCC[C@@H](C)C1=C[C@H](O)[C@@](C)(O)CC1 (relative stereo) [Compound 2, rel-(2S,3S,7R)-bisabola-1(6),10-diene-2,3-diol]",> 200,24.2 ± 4.4,88.3 ± 6.5,,
"CC(C)=CCC[C@@H](C)C1=CC(=O)[C@@](C)(O)CC1 (relative stereo) [Compound 1, rel-(3S,7R)-3-hydroxy-bisabola-1(6),10-dien-2-one]",> 200,6.7 ± 3.8,38.5 ± 2.7,,
"C=C1[C@@H](C)CC[C@]2(C)[C@@H](C=O)C(C=O)=CC[C@@H]12 [Compound 6, 9-deoxymuzigadial]",,3.1 ± 0.1,5.9 ± 0.9,,> 200
